Like-named read-outs stand apart in the source and are kept apart here.
How the values were obtained:
Septoria lycopersici = Septoria lycopersici (leaf spot of tomato) in vitro test, radial growth on Potato Dextrose Agar; type: cell-based; conditions: 168 h, seven days, 25° C., read-out: % control compared to the untreated check (radial growth)
Fusarium culmorum [1] = test: Greenhouse Fusarium culmorum test in wheat, preventive; type: in vivo; conditions: 24 h, read-out: Efficacy (% control), disease severity vs untreated check
How it was run: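 Young greenhouse wheat sprayed preventively at stated rates (compounds in 2% DMSO/acetone, diluted in water), inoculated one day later with 2×10^6 Fusarium culmorum spores in 2% malt, held at 24 °C, 80-90% RH. Disease severity (0-100%) rated 3, 7, 10 and 15 days after application; % control versus untreated, phytotoxicity also recorded.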

Corynespora cassicola = test: Table 3 comparative % inhibition, Corynespora cassicola (CORYCA); type: cell-based; conditions: Table 3 comparison
Rhizoctonia solani = Rhizoctonia solani (rice sheath blight/potato black scurf) in vitro test, radial growth on Potato Dextrose Agar; type: cell-based; conditions: for inhibition of growth at 300 ppm: 168 h, seven days, 25° C., read-out: % control compared to the untreated check (radial growth); for inhibition at 300 ppm: Table 3 comparison, read-out: RHIZSO % inhibition
Botrytis cinerea = Botrytis cinerea (gray mold) in vitro test, radial growth on Potato Dextrose Agar; type: cell-based; conditions: for inhibition of growth at 300 ppm: 168 h, seven days, 22° C., read-out: % (control) compared to the untreated check (radial growth); for inhibition at 300 ppm: read-out: BOTRCI % inhibition
Pyricularia oryzae = test: microbe, parasite or virus in culture; type: cell-based; conditions: for inhibition of growth at 300 ppm: 168 h, read-out: % control compared to the untreated check (radial growth); for inhibition at 300 ppm: read-out: PYRIOR % inhibition
Colletotrichum capsici = Colletotrichum capsici (anthracnose) in vitro test, radial growth on Potato Dextrose Agar; type: cell-based; conditions: Colletotrichum truncatum; for inhibition of growth at 300 ppm: 168 h, seven days, 25° C., read-out: % control compared to the untreated check (radial growth); for inhibition at 300 ppm: Table 3 comparison, read-out: COLLCA % inhibition
Fusarium culmorum [2] = test: Fusarium culmorum (foot rot of cereals) in vitro test, radial growth on Potato Dextrose Agar; type: cell-based; conditions: Fusarium culmorum; for inhibition of growth at 300 ppm: 168 h, read-out: % control compared to the untreated check (radial growth); for inhibition at 300 ppm: Table 3 comparison, read-out: FUSACU % inhibition
Alternaria solani = Alternaria solani (early blight of tomato/potato) in vitro test, radial growth on Potato Dextrose Agar; type: cell-based; conditions: for inhibition of growth at 300 ppm: 168 h, seven days, 25° C., read-out: % control compared to the untreated check (radial growth); for inhibition at 300 ppm: Table 3 comparison, read-out: ALTESO % inhibition
Botrytis cinera = test: Greenhouse Botrytis cinera test in tomato, preventive; type: in vivo; conditions: 24 h, plants sprayed one day before inoculation, read-out: Efficacy (% control), disease severity vs untreated check
[3] = Dose 300 ppm, Table 3 comparison

SMILES | inhibition of growth at 300 ppm (Septoria lycopersici) | pest or weed control at 500 ppm (Fusarium culmorum [1]) | inhibition at 300 ppm (Corynespora cassicola) | inhibition of growth at 300 ppm (Rhizoctonia solani) | inhibition at 300 ppm (Rhizoctonia solani) | inhibition of growth at 300 ppm (Botrytis cinerea) | inhibition at 300 ppm (Botrytis cinerea; [3]) | inhibition of growth at 300 ppm (Pyricularia oryzae) | inhibition at 300 ppm (Pyricularia oryzae) | inhibition of growth at 300 ppm (Colletotrichum capsici) | inhibition at 300 ppm (Colletotrichum capsici) | inhibition of growth at 300 ppm (Fusarium culmorum [2]) | inhibition at 300 ppm (Fusarium culmorum [2]) | inhibition of growth at 300 ppm (Alternaria solani) | inhibition at 300 ppm (Alternaria solani) | pest or weed control at 500 ppm (Botrytis cinera) | inhibition at 300 ppm (Botrytis cinerea)
CCN(C)C=Nc1cc(C)c(Cc2ccccc2)cc1C [Compound 1, N′-(4-benzyl-2,5-dimethylphenyl)-N-ethyl-N-methylformimidamide] | > 70% | 70 to 100% | 100% | > 80% | 100% | > 80% | 100% | > 75% | 100% | > 80% | 100% | 75% | 100% | > 75% | 100% | 70 to 100% | 
CCN(C)C=Nc1cc(C)c(Cc2ccccc2F)cc1Cl [Compound 16, N′-(2-chloro-4-(2-fluorobenzyl)-5-methylphenyl)-N-ethyl-N-methylformimidamide] | > 70% | 70 to 100% | 100% | > 80% | 100% | > 80% | 100% | > 75% | 100% | > 80% | 100% | 75% | 100% | > 75% | 100% |  | 
CCN(C)C=Nc1cc(C)c(Cc2ccccc2)cc1Cl [Compound 74, N′-(4-benzyl-2-chloro-5-methylphenyl)-N-ethyl-N-methylformimidamide] | > 70% |  | 71.2% | > 80% | 100% | > 80% |  | > 75% | 100% | > 80% | 100% | 75% | 94.5% | > 75% | 100% |  | 94.5%
CCN(C)C=Nc1cc(C)c(Cc2ccccc2F)cc1C [Compound 15, N-ethyl-N′-(4-(2-fluorobenzyl)-2,5-dimethylphenyl)-N-methylformimidamide] | > 70% |  | 100% | > 80% | 100% | > 80% | 100% | > 75% | 100% | > 80% | 100% | 75% | 100% | > 75% | 100% | 70 to 100% | 

— US11155517B2, “4-substituted phenylamine derivatives and their use to protect crops by fighting undesired phytopathogenic micoorganisms” (PI INDUSTRIES LTD., priority 2016, dated 2021)
